This is an account of results in ChEMBL document CHEMBL1145474, “Selective phosphorylation of antiviral drugs by vaccinia virus thymidine kinase” (Antimicrob Agents Chemother, 2007).

The test system of data set [1] is Cowpox virus. Nature of the data set: microbe, parasite or virus in culture. The class given is functional, organism-based. As to conditions: HFF, 48 h.
For data set [2], the system named is Cowpox virus. Nature of the data set: microbe, parasite or virus in culture. As to conditions: HFF, 48 h. The class given is functional, organism-based. The source holds these as a separate data set.
The test system of a further data set is Vaccinia virus. Nature of the data set: microbe, parasite or virus in culture. The class given is functional, organism-based. As to conditions: Orthopoxvirus vaccinia, HFF, 1 h.
In data set [3] the test system is Cowpox virus. Kind of data set: microbe, parasite or virus in culture. The class given is functional, organism-based. As to conditions: Brighton, HFF, 1 h.
Data set [4] concerns Human alphaherpesvirus 2. Kind of data set: microbe, parasite or virus in culture. It counts as functional, organism-based. As to conditions: Human alphaherpesvirus 2, MS, HFF, 72 h.
For data set [5], the system named is Human alphaherpesvirus 1. Nature of the data set: microbe, parasite or virus in culture. It counts as functional, organism-based. The conditions noted are these: Human alphaherpesvirus 1, E377, HFF, 72 h.
In data set [6] the test system is Human alphaherpesvirus 1. Kind of data set: microbe, parasite or virus in culture. It counts as functional, organism-based. As to conditions: Human alphaherpesvirus 1, DM2.1, HFF, 72 h.
Data set [7] concerns Human alphaherpesvirus 2. Kind of data set: microbe, parasite or virus in culture. The class given is functional, organism-based. As to conditions: Human alphaherpesvirus 2, AG3, HFF, 72 h.
The subject of the next data set is Human alphaherpesvirus 3. Nature of the data set: microbe, parasite or virus in culture. The class given is functional, organism-based. As to conditions: Human alphaherpesvirus 3, Ellen, HFF, 240 h.
Substrate in data set [8]: O=c1[nH]cc(C(F)(F)F)c(=O)[nH]1
As to conditions: Orthopoxvirus vaccinia; WR.

Substrate in data set [9]: N#CC(C#N)=Cc1cn([C@H]2C[C@H](O)[C@@H](CO)O2)c(=O)[nH]c1=O
The conditions noted are these: Orthopoxvirus vaccinia; WR.

Substrate in data set [10]: CC1(C)CC(=O)C2=C(C1)OC(N)=C(C#N)C2c1cn([C@H]2C[C@H](O)[C@@H](CO)O2)c(=O)[nH]c1=O
The conditions noted are these: Orthopoxvirus vaccinia; WR.

Substrate in data set [11]: CCOC(=O)/C(C#N)=C/c1cn([C@H]2C[C@H](O)[C@@H](CO)O2)c(=O)[nH]c1=O
The conditions noted are these: Orthopoxvirus vaccinia; WR.

Substrate in data set [12]: Nc1nc(=O)n([C@@H]2O[C@H](CO)[C@@H](O)[C@@H]2F)cc1I
The conditions noted are these: Orthopoxvirus vaccinia; WR.

Substrate in data set [13]: O=c1[nH]c(=O)n([C@H]2C[C@H](O)[C@@H](CO)O2)cc1F
The conditions noted are these: Orthopoxvirus vaccinia; WR.

Substrate in data set [14]: O=c1[nH]c(=O)n([C@H]2C[C@H](O)[C@@H](CO)O2)cc1Br
The conditions noted are these: Orthopoxvirus vaccinia; WR.

In the case of `N#CC(C#N)=Cc1cn([C@H]2C[C@H](O)[C@@H](CO)O2)c(=O)[nH]c1=O`, the 50% effective concentration (EC50) – broadly, the concentration at which the effect is half-maximal – in the data set on Cowpox virus [1] is 1.9 µM; with Cowpox virus [2], 46 µM; in the data set on Vaccinia virus, 17 µM; in the data set with Cowpox virus [3] it was 21 µM; with Human alphaherpesvirus 2 [4], 11 µM; in the data set with Human alphaherpesvirus 1 [5] it was 11 µM. Besides, the EC50 with Human alphaherpesvirus 1 [6] was determined as 14 µM; in the data set on Human alphaherpesvirus 2 [7], 12 µM; with Human alphaherpesvirus 3, 15 µM. Also, the Km (in general, the concentration of substrate that gives half-maximal velocity) in the data set filed under Homo sapiens was 113 µM.

For the molecule `Nc1ccn(C[C@@H](CO)OCP(=O)(O)O)c(=O)n1` [CIDOFOVIR], the concentration giving a half-maximal response (EC50) with Cowpox virus [1] amounted to 10 µM; in the data set with Cowpox virus [2] it was 16 µM; with Vaccinia virus, 11 µM; with Cowpox virus [3], 32 µM.

With `Nc1nc2c(ncn2COCCO)c(=O)[nH]1` [ACYCLOVIR], the EC50 in the data set on Human alphaherpesvirus 2 [4] was 3.1 µM; with Human alphaherpesvirus 1 [5] it was 1.3 µM; in the data set on Human alphaherpesvirus 1 [6], > 444 µM; in the data set on Human alphaherpesvirus 2 [7], > 444 µM; in the data set with Human alphaherpesvirus 3, 8.5 µM.

In the case of `N#CC1=C(N)OC2=C(C(=O)CCC2)C1c1cn([C@H]2C[C@H](O)[C@@H](CO)O2)c(=O)[nH]c1=O` (stereo partly specified), the half-maximal effective concentration (EC50) in the data set on Cowpox virus [1] is 1.9 µM; with Cowpox virus [2], 67 µM; in the data set with Vaccinia virus, 4.6 µM; with Cowpox virus [3], 2 µM; in the data set on Human alphaherpesvirus 2 [4], 12 µM; with Human alphaherpesvirus 1 [5], 8.6 µM. Moreover, the concentration for a half-maximal effect (EC50) worked out at 13 µM in the data set on Human alphaherpesvirus 1 [6], 12 µM in the data set with Human alphaherpesvirus 2 [7] and 16 µM with Human alphaherpesvirus 3.

In the case of `O=c1[nH]c(=O)n([C@H]2C[C@H](O)[C@@H](CO)O2)cc1Br`, the Michaelis constant (Km) in the data set listed under Homo sapiens was 46 µM.

For the molecule `Nc1nc(=O)n([C@@H]2O[C@H](CO)[C@@H](O)[C@@H]2F)cc1I`, in the data set filed under Homo sapiens, the Km is > 135 µM.

On to `O=c1[nH]c(=O)n([C@H]2C[C@H](O)[C@@H](CO)O2)cc1F`, for which the Michaelis-Menten constant (Km) in the data set listed under Homo sapiens came out at 96 µM.

For the molecule `O=c1[nH]c(=O)n([C@@H]2O[C@H](CO)[C@@H](O)[C@@H]2F)cc1I`, the Km in the data set filed under Homo sapiens came to 66 µM.

Regarding `O=c1[nH]cc(C(F)(F)F)c(=O)[nH]1`, the Km in the data set listed under Homo sapiens was determined as 47 µM.

On to `CC1(C)CC(=O)C2=C(C1)OC(N)=C(C#N)C2c1cn([C@H]2C[C@H](O)[C@@H](CO)O2)c(=O)[nH]c1=O` (stereo partly specified), for which the EC50 stood at 3.1 µM in the data set on Cowpox virus [1]; 67 µM in the data set with Cowpox virus [2]; 7.9 µM in the data set on Vaccinia virus; 8.4 µM in the data set on Cowpox virus [3]; 13 µM in the data set on Human alphaherpesvirus 2 [4]; 7.3 µM in the data set with Human alphaherpesvirus 1 [5]. In addition, the concentration for a half-maximal effect (EC50) with Human alphaherpesvirus 1 [6] turned out to be 17 µM; in the data set with Human alphaherpesvirus 2 [7] it was 14 µM; in the data set with Human alphaherpesvirus 3 it was 9.2 µM. Moreover, in the data set filed under Homo sapiens, the Michaelis constant (Km) is > 200 µM.

`Cc1cn([C@H]2C[C@H](O)[C@@H](CO)O2)c(=O)[nH]c1=O`: the Michaelis-Menten constant (Km) in the data set listed under Homo sapiens was 23 µM.

Take `O=c1[nH]c(=O)n([C@H]2C[C@H](O)[C@@H](CO)O2)cc1I` [IDOXURIDINE]: the 50% effective concentration (EC50) with Cowpox virus [1] came out at 1.1 µM; with Cowpox virus [2], 76 µM; in the data set with Vaccinia virus, 5.6 µM; in the data set on Cowpox virus [3], 1.8 µM. Moreover, the Km in the data set filed under Homo sapiens was 38 µM.

Take `CCOC(=O)/C(C#N)=C/c1cn([C@H]2C[C@H](O)[C@@H](CO)O2)c(=O)[nH]c1=O`: the half-maximal effective concentration (EC50) with Cowpox virus [1] amounted to 1.9 µM; in the data set on Cowpox virus [2], 71 µM; in the data set on Vaccinia virus, 18 µM; in the data set with Cowpox virus [3], 11 µM; in the data set with Human alphaherpesvirus 2 [4], 8.3 µM; in the data set with Human alphaherpesvirus 1 [5], 7.6 µM. The half-maximal effective concentration (EC50) with Human alphaherpesvirus 1 [6] came out at 16 µM; with Human alphaherpesvirus 2 [7], 11 µM; with Human alphaherpesvirus 3 it was 48 µM. In addition, in the data set listed under Homo sapiens, the Km amounted to 118 µM.

B1: Thymidine kinase (Vaccinia virus (strain Western Reserve) (VACV) (Vaccinia virus (strainWR))), P68563 (protein)
chain: MNGGHIQLIIGPMFSGKSTELIRRVRRYQIAQYKCVTIKYSNDNRYGTGLWTHDKNNFEALEATKLCDVLESITDFSVIGIDEGQFFPDIVEFCERMANEGKIVIVAALDGTFQRKPFNNILNLIPLSEMVVKLTAVCMKCFKEASFSKRLGEETEIEIIGGNDMYQSVCRKCYIDS
Take B1: the Km in [8] was 14 µM; in data set [9], 9.6 µM; in data set [10] it was 97 µM; in [11] it was 13 µM; in [12], > 135 µM; in data set [13] it was 113 µM. Also, the Km in data set [14] was found to be 30 µM.
